{"source": "patent US20120259413A1", "about": "“DEVICES, COMPOSITIONS AND METHODS UTILIZING EP4 AND EP2 RECEPTOR AGONISTS FOR PREVENTING, REDUCING OR TREATING CAPSULAR CONTRACTURE” (ALLERGAN, INC., priority 2011, published 2012)", "key": {"[1]": {"biological_target": "T1, human recombinant EP4 receptor (HEK-293 cells) (Homo sapiens, UniProt P35408)", "T1 construct": "expressed in transfected cells", "T1 sequence (P35408 whole entry)": "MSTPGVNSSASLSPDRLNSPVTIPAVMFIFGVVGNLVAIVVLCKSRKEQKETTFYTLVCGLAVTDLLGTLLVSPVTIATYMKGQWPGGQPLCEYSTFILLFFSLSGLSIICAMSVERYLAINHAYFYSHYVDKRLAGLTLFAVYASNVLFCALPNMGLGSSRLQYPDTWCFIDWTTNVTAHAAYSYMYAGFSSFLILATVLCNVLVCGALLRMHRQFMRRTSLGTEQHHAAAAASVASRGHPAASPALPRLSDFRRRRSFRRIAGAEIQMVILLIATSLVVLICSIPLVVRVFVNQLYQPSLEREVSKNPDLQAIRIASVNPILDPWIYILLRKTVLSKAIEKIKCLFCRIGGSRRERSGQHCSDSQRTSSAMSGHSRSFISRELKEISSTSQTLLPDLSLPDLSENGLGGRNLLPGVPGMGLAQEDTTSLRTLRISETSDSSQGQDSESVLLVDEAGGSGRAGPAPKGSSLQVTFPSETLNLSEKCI", "assay": "AlphaScreen cAMP assay, EP4 receptor", "format": "cell-based", "conditions": "read-out: EC50 for increased cAMP production", "description": "(§1) cAMP assay was carried out using AlphaScreen cAMP assay kits (PerkinElmer, Boston, Mass.) following manufacturer instructions. Intracellular Ca^2+ was monitored using a FLIPR Tetra system and assay kits from Molecular Devices following manufacturer instructions. All assays were carried out in HEK-293 cells heterologously and stably expressing each of the eight human recombinant prostanoid receptors. For Ca^2+ signals, hEP2, hEP4, hDP were co-expressed with a chimeric G protein, Gqs, which converts Gs signal to Gq Ca^2+ signal, and hEP3 with a chimeric G protein, Gqi. Each receptor-selective agonist induced Ca^2+ signals with sub-nanomolar or nanomolar EC50 values. Subtype-selective compounds used here are PGE2 for EP1, EP2, EP3 and EP4; BW245C for DP; 17-phenyl PGF2α for FP, carbacyclin for IP and U-46619 for TP.\n(§2) Human Recombinant EP1, EP2, EP3, EP4, FP, TP, IP and DP Receptors: Stable Transfectants\n(§3) Plasmids encoding the human EP1, EP2, EP3, EP4, FP, TP, IP and DP receptors are prepared by cloning the respective coding sequences into the eukaryotic expression vector pCEP4 (Invitrogen). […] Selection of stable transfectants is achieved with 200 μg ml^−1 hygromycin, the optimal concentration being determined by previous hygromycin kill curve studies. […]"}, "[2]": {"biological_target": "T2, human recombinant EP4 receptor (Homo sapiens, UniProt P35408)", "T2 construct": "expressed in transfected cells", "T2 sequence (P35408 whole entry)": "as above", "assay": "Radioligand binding assay ([3H]PGE2 competition), EP4 receptor", "description": "(§4) General Protocol for Radioligand Binding Assays and cAMP assays:\n(§5) Radioligand binding studies on plasma membrane fractions prepared from cells** are performed as follows. Cells washed with TME buffer are scraped from the bottom of the flasks and homogenized for 30 sec using a Brinkman PT 10/35 polytron. TME buffer is added as necessary to achieve a 40 ml volume in the centrifuge tubes. TME is comprised of 50 mM TRIS base, 10 mM MgCl2, 1 mM EDTA; pH 7.4 is achieved by adding 1 N HCl. The cell homogenate is centrifuged at 19,000 rpm for 20-25 min at 4° C. using a Beckman Ti-60 or Tt-70 rotor. The pellet is then re-suspended in TME buffer to provide a final protein concentration of 1 mg/ml, as determined by Bio-Rad assay. Radioligand binding assays are performed in a 100 μl or 200 μl volume.\n(§6) The binding of [^3H] PGE2 (specific activity 165 Ci/mmol) is determined in duplicate and in at least 3 separate experiments. […] PGE2 and non-specific binding is determined with 10^−5 M unlabelled PGE2. […]\nas §3"}, "VEGF": {"system": "VEGF", "assay": "VEGF expression at wound sites (Western blot)", "format": "in vivo, Sprague Dawley rats", "conditions": "wound tissue, transiently at day-7", "description": "(§7) 2 cm long incisional full thickness skin wounds were made on the back of Sprague Dawley rats. Wounds were treated with vehicle or EP4 agonist (compound I). The wound tissue was biopsied at day-7 or day-14 post-surgery. The samples were homogenized in protein extraction buffer after being frozen in liquid nitrogen. The protein concentrations were measured. Then the samples were loaded into 4-10% SDS-Pages to resolve the proteins. After electrophoresis, the proteins were transferred onto nitrocellular membranes. The membranes were blocked with anti-VEGF, anti-bFGF or anti-beta-actin, respectively. […] It is reported that bFGF prevents scar formation and reduces hypertrophic and burn-induced skin scars. VEGF expression was boosted by 25% transiently at day-7, which may contribute to angiogenesis at wound site and facilitate scar-free healing."}, "bFGF": {"system": "bFGF", "assay": "bFGF expression at wound sites (Western blot)", "format": "in vivo, Sprague Dawley rats", "conditions": "wound tissue, day-7 and day-14", "description": "as §7"}, "hEP4/Gqs": {"biological_target": "T3, hEP4/Gqs (Homo sapiens, UniProt P35408)", "T3 construct": "expressed in transfected cells", "T3 sequence (P35408 whole entry)": "as above", "assay": "FLIPR Ca2+ signal assay, hEP4/Gqs", "format": "cell-based", "description": "as §1, §2, §3"}, "incisional skin wounds [3]": {"system": "incisional skin wounds", "assay": "Incisional skin wound study comparing Compound I and TGF-β3", "format": "in vivo, rats", "conditions": "for number of neutrophils counted in three sections: 3 days post-surgery, H&E, n=5, vehicle 60.6±30; for macroscopic surface appearance of wound sites / abnormal regions of dense, red, fine parallel fibers in wound gaps: 70 days post-surgery; for abnormal regions of dense, red, fine parallel fibers in wound gaps: Picrosirius red; for widths of the abnormal structured dermis regions versus vehicle: day 14, Masson trichrome; for gap width in-between the normal fibrils versus vehicle / collagen fibrils at wound sites under polarized light: day 14, Picrosirius red; for gap width in-between the normal fibrils versus vehicle: p<0.05; for collagen fibrils at wound sites under polarized light: yellow type I, green type III collagen", "description": "A similar skin wound study was also performed comparing the effects of Compound I and TGF-β3. In this study, intradermal injections of Compound I at 0.004%, TGF-β3 at 100 ng/200 μl or vehicle were given right before closing the wounds. Afterward, TGF-β3 was injected two more times, on day 1 and 2, and Compound I and vehicle were topically applied twice a day for the duration of the study. The vehicle was PBS with 0.1% BSA and 4 mM HCl in a total volume of 200 μl for injection. Skin wounds were imaged on day 3, 7, 14, 35 and 70.\n(§8) The wound tissue was biopsied for histopathology on day 3, 14 and 70. To observe the skin wound, paraffin-embedded wound sections were made. Regular H&E staining was carried out in comparison with Masson trichrome and/or Picosirus red to visualize the collagen fibers. To monitor myofibroblasts in skin wound, the sections were immunohistochemically stained to identify alpha-smooth muscle actin. To assess wound appearance, all the scar photos were mixed together by the end of each study. The scar severity was scored on a scale of 0 to 10, with 0 being invisible, 1 the minimal and 10 the worst. Each scar was divided into 4 regions, separated by suture sites; each quarter was scored independently; the mean of the 4 part scores was recorded as the gross score of each wound."}, "incisional skin wounds [4]": {"system": "incisional skin wounds", "assay": "Incisional skin wound study, 14 day pilot, topical treatment", "format": "in vivo, Sprague-Dawley rats", "description": "Sprague-Dawley rats weighing 180-200 grams were anesthetized with isoflourane. After shaving, a 2-cm long incision was made, reaching the deep fascia on the back skin of rats under sterile conditions. The wounds were immediately closed with 4-0 sutures. A 14 day pilot study was carried out. The animals were topically treated with vehicle or Compound 1 at 0.004% twice daily. The vehicle contained ethanol 30%, propylene glycol 12%, dipropylene glycol 5%, benzyl alcohol 5%, glycerol 3% and normal saline 45%. The wound was photographed daily; biopsy was performed at 2, 3, 7 and 14 days post-surgery for histopathology and molecular biology analysis.\nas §8"}, "[5]": {"system": "cultured human skin fibroblasts", "assay": "TGF-β1-induced myofibroblast formation (α-SMA Western blot)", "format": "cell-based", "conditions": "10 or 100 nM with TGF-β1 2 ng/ml, 72 hours", "description": "EP4 and EP2 Receptor Agonists Inhibit TGF-β1-Induced Myofibroblasts Formation\nAdult skin fibroblasts were derived from normal skin of a person, purchased from ATCC(CRL-7346). Cells were cultured in DMEM medium supplemented with 10% fetal bovine serum and 1% streptomycin and penicillin in incubators at 37° C. and 5% CO2. Cells were seeded in 10 cm dishes at 1×10^6 cells/dish. When the cells became 80% confluent, they were cultured in serum-free medium for 48 hrs after washing away residual serum with PBS. Vehicle, Compound I (EP4 receptor agonist), or Compound II (EP2 receptor agonist), together with human recombinant TGF-β1 (2 ng/ml), were added to culture medium at 0, 10 or 100 nM final concentration, respectively. Compound I or 2 was first dissolved in DMSO, the final DMSO concentration was 0.1%. Cell lysates were collected at 72 hours after treatments, respectively. Proteins were quantified and resolved on 4-10% SDS-PAGE. Then the proteins were transferred to membrane by electrophoresis. The membranes were blocked with mouse-anti-alpha smooth muscle actin (α-SMA) antibody, and a second antibody against mouse-IgG conjugated with AP (purchased from Signal Transduction). Shown in FIG. 1A is a representative image of Western Blot myofibroblast marker expression under the treatment of EP4 or EP2 receptor agonists in combination with TGF-β1 in cultured human skin fibroblasts."}, "hEP2 [6]": {"biological_target": "T4, hEP2 (Homo sapiens, UniProt P43116)", "T4 construct": "expressed in transfected cells", "T4 sequence (P43116 whole entry)": "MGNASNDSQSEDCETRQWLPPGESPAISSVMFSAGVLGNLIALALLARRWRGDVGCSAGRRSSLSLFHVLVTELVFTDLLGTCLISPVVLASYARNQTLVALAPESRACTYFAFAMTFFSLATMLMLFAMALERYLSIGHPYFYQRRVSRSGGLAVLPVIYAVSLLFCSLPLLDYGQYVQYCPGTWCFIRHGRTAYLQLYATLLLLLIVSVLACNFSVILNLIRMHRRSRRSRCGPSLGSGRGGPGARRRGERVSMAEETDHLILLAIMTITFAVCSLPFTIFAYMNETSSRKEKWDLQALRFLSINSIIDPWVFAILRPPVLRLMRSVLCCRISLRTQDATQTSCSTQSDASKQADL", "assay": "FLIPR Ca2+ signal assay, hEP2 co-expressed with Gqs", "format": "cell-based", "conditions": "EP2 receptor", "description": "as §1, §2, §3"}, "hEP2 [7]": {"biological_target": "T4, hEP2", "assay": "Radioligand binding assay ([3H]PGE2 competition), EP2 receptor", "description": "as §4, §5, §6, §3"}, "[8]": {"biological_target": "T5, human recombinant EP2 receptor (HEK-293 cells) (Homo sapiens, UniProt P43116)", "T5 construct": "expressed in transfected cells", "T5 sequence (P43116 whole entry)": "as above", "assay": "AlphaScreen cAMP assay, EP2 receptor", "format": "cell-based", "conditions": "read-out: cAMP enhancement EC50", "description": "as §1, §2, §3"}, "[9]": {"conditions": "14 days post-surgery, Masson Trichrome"}}}
{"compound": "CC1(C)C(=O)[C@H](C/C=C\\CCCC(=O)O)[C@@H](/C=C/[C@H](O)CCc2sc3ccccc3c2Cl)[C@@H]1O", "note": "[Compound I]", "values": [{"measurement": "EC50", "setting": "[1]", "result": "0.25 ± 0.03", "unit": "nM"}, {"measurement": "Ki", "setting": "[2]", "result": "6.7 ± 0.7", "unit": "nM"}, {"measurement": "boost of VEGF expression", "setting": "VEGF", "result": 25, "unit": "%"}, {"measurement": "enhancement of bFGF expression", "setting": "bFGF", "result": "up to 60%"}, {"measurement": "EC50", "setting": "hEP4/Gqs", "result": "0.11 ± 0.05", "unit": "nM"}, {"measurement": "number of neutrophils counted in three sections", "setting": "incisional skin wounds [3]", "result": "31.4±8"}, {"measurement": "macroscopic surface appearance of wound sites", "setting": "incisional skin wounds [3]", "result": "wound sites were not even detectable"}, {"measurement": "abnormal regions of dense, red, fine parallel fibers in wound gaps", "setting": "incisional skin wounds [3]", "result": "largely absent"}, {"measurement": "widths of the abnormal structured dermis regions versus vehicle", "setting": "incisional skin wounds [3]; p<0.01-0.05", "result": "significantly smaller"}, {"measurement": "gap width in-between the normal fibrils versus vehicle", "setting": "incisional skin wounds [3]", "result": "significantly narrower"}, {"measurement": "collagen fibrils at wound sites under polarized light", "setting": "incisional skin wounds [3]", "result": "large yellow-stained collagen bundles almost crossing over the entire wound sites"}, {"measurement": "size of residual scar regions versus vehicle", "setting": "incisional skin wounds [3]; day 70, Masson trichrome", "result": "remarkably smaller"}, {"measurement": "effect on residual scar size compared with TGF-β3", "setting": "incisional skin wounds [3]; day 70, Masson trichrome, p<0.01-0.05", "result": "more noticeable than TGF-β3"}, {"measurement": "epidermal thickness of vehicle-treated skin relative to Compound I treated epidermis", "setting": "incisional skin wounds [4]; 7 days post-skin incision", "result": 3, "unit": "times"}, {"measurement": "thickness of epidermal layer of treated skin", "setting": "incisional skin wounds [4]; 7 days post-skin incision", "result": "close to the nearby normal epidermis"}, {"measurement": "gross skin scar appearance versus vehicle-treated animals", "setting": "incisional skin wounds [4]; 14 days post-surgery", "result": "smaller and softer skin scar"}, {"measurement": "scar width at the superficial region", "setting": "incisional skin wounds [4]; [9]", "result": "only a tendency to decrease"}, {"measurement": "scar width in the middle and bottom parts of scars", "setting": "incisional skin wounds [4]; [9]", "result": "significantly reduced"}, {"measurement": "overall size of epidermal defects, vehicle-treated wounds compared with Compound I treated wounds", "setting": "incisional skin wounds [4]; day 3", "result": "two times larger"}, {"measurement": "skin wound samples with closed epidermis filled with keratinocytes", "setting": "incisional skin wounds [4]; day 3, 0.004% topical twice daily", "result": 80, "unit": "%"}, {"measurement": "number of myofibroblasts (α-SMA-positive cells)", "setting": "incisional skin wounds [4]; day 3 samples, vehicle control 38±6.15", "result": "25.8±7.45 /3 sections"}, {"measurement": "polymorphonuclear cell infiltration at wound sites", "setting": "incisional skin wounds [4]; days 2 and 3", "result": "significantly reduced"}, {"measurement": "TGF-β1-up-regulated expression of α-SMA", "setting": "[5]", "result": "dramatically ameliorated"}]}
{"compound": "TGF-β3: a leading treatment for wounds, reportedly reducing skin scar in both animals and human; comparator", "values": [{"measurement": "number of neutrophils counted in three sections", "setting": "incisional skin wounds [3]", "result": "53.8±17"}, {"measurement": "macroscopic surface appearance of wound sites", "setting": "incisional skin wounds [3]", "result": "still showed traces of wounds"}, {"measurement": "abnormal regions of dense, red, fine parallel fibers in wound gaps", "setting": "incisional skin wounds [3]", "result": "largely absent"}, {"measurement": "widths of the abnormal structured dermis regions versus vehicle", "setting": "incisional skin wounds [3]; p<0.01-0.05", "result": "significantly smaller"}, {"measurement": "gap width in-between the normal fibrils versus vehicle", "setting": "incisional skin wounds [3]", "result": "significantly narrower"}, {"measurement": "collagen fibrils at wound sites under polarized light", "setting": "incisional skin wounds [3]", "result": "some green fibers at the bottom of the wounds"}, {"measurement": "size of residual scar regions versus vehicle", "setting": "incisional skin wounds [3]; day 70, Masson trichrome", "result": "remarkably smaller"}]}
{"compound": "CCCCC[C@H](O)c1ccc(N2C(=O)CC[C@@H]2CCCc2ccc(C(=O)O)s2)cc1", "note": "[Compound II]", "values": [{"measurement": "EC50", "setting": "hEP2 [6]", "result": 6.7, "unit": "nM"}, {"measurement": "Ki", "setting": "hEP2 [7]", "result": 21, "unit": "nM"}, {"measurement": "EC50", "setting": "[8]", "result": 0.19, "unit": "nM"}, {"measurement": "TGF-β1-up-regulated expression of α-SMA", "setting": "[5]", "result": "dramatically ameliorated"}]}
